Where two headings read alike, the source gives them in different places.
System: HCV proteins in Rep5.1 cells (replicon cell line)
Experiment: Inhibitory activity of HCV: cell-based ELISA in replicon cell line Rep5.1 (decrease of HCV proteins)
Parameters: species or system hepatitis C virus
Conditions: Rep5.1 cells, 72 hours with drug
How it was run: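 Rep5.1 replicon cells (5000/well, DMEM-10 with 500 μg/ml G418) were given serially diluted drug 4 h after seeding. After 72 h, cells were fixed in methanol/acetone and HCV proteins detected by cell-based ELISA using replicon-specific patient plasma antibodies. IC50 is the concentration giving 50% protein decrease versus the no-drug control.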

[1] = Hepatitis C virus, 72 h, concentration at which 50% of HCV proteins was decreased, Table 2, read-out: IC50
[2] = Hepatitis C virus, 72 h, decrease of HCV proteins measured by HCV antibody, Table 1, read-out: Level (IC50 values classified)

Row | Compound | IC50 [1] | IC50 [2] | IC50 (concentration at which 50% of HCV proteins was decreased, Table 2, read-out: IC50)
1 | COC(=O)C1=C(C(=O)OCc2ccccc2)CNC(=S)N1 [Compound 196, 2-thioxo-1,2,3,6-tetrahydro-pyrimidine-4,5-dicarboxylic acid 5-benzyl ester 4-methyl ester] | 43 µM | > 20 µM | –
2 | CC1=C(C(=O)OC2CCc3c(Cl)sc(Cl)c32)CNC(=S)N1 (stereo not shown) [12′, 6-methyl-2-thioxo-1,2,3,4-tetrahydro-pyrimidine-5-carboxylic acid 1,3-dichloro-5,6-dihydro-4H-cyclopenta[c]thiophen-4-yl ester] | < 0.4 µM | < 1 µM | –
3 | COc1ccccc1CCOC(=O)C1=C(C)NC(=S)NC1CO (stereo not shown) [9″, 4-hydroxymethyl-6-methyl-2-thioxo-1,2,3,4-tetrahydro-pyrimidine-5-carboxylic acid 2-(2-methoxy-phenyl)-ethyl ester] | 20 µM | 10 to 20 µM | –
4 | COc1ccc(Cl)cc1COC(=O)C1=C(C)NC(=S)NC1 [Compound 132, 6-methyl-2-thioxo-1,2,3,4-tetrahydro-pyrimidine-5-carboxylic acid 5-chloro-2-methoxy-benzyl ester] | 0.4 µM | < 1 µM | –
5 | CC1=C(C(=O)OCCc2cccc(C)c2)C(CO)NC(=S)N1 (stereo not shown) [64″, 4-hydroxymethyl-6-methyl-2-thioxo-1,2,3,4-tetrahydro-pyrimidine-5-carboxylic acid 2-m-tolyl-ethyl ester] | 5.5 µM | 1 to 10 µM | –
6 | CC1=C(C(=O)OCc2cc3c(cc2[N+](=O)[O-])OCO3)CNC(=S)N1 [Compound 140, 6-methyl-2-thioxo-1,2,3,4-tetrahydro-pyrimidine-5-carboxylic acid 6-nitro-benzo[1,3]dioxol-5-ylmethyl ester] | 13 µM | 10 to 20 µM | –
7 | CC1=C(C(=O)OC(C)Cc2ccsc2)CNC(=S)N1 (stereo not shown) [Compound 255, 6-methyl-2-thioxo-1,2,3,4-tetrahydro-pyrimidine-5-carboxylic acid 2-thiophen-3-yl-1-methyl-ethyl ester] | 2 µM | 1 to 10 µM | –
8 | C=CCC(C=C)OC(=O)C1=C(C)NC(=S)NC1 (stereo not shown) [Compound 55, 6-methyl-2-thioxo-1,2,3,4-tetrahydro-pyrimidine-5-carboxylic acid 1-vinyl-but-3-enyl ester] | 2.5 µM | 1 to 10 µM | –
9 | CC1=C(C(=O)OCCc2ccsc2)C(CF)NC(=S)N1 (stereo not shown) [Compound 252, 4-fluoromethyl-6-methyl-2-thioxo-1,2,3,4-tetrahydro-pyrimidine-5-carboxylic acid 2-thiophen-3-yl-ethyl ester] | 1.4 µM | 1 to 10 µM | –
10 | CC1=C(C(=O)OCCOCc2ccccc2)CNC(=S)N1 [Compound 15, 6-methyl-2-thioxo-1,2,3,4-tetrahydro-pyrimidine-5-carboxylic acid 2-benzyloxy-ethyl ester] | 3 µM | 1 to 10 µM | –
11 | CC1=C(C(=O)OCc2ccncc2)CNC(=S)N1 [Compound 155, 6-methyl-2-thioxo-1,2,3,4-tetrahydro-pyrimidine-5-carboxylic acid pyridin-4-ylmethyl ester] | > 100 µM | > 20 µM | –
12 | CC1=C(C(=O)OCCc2cccc(Cl)c2)C(CF)NC(=S)N1 (stereo not shown) [70′, 4-fluoromethyl-6-methyl-2-thioxo-1,2,3,4-tetrahydro-pyrimidine-5-carboxylic acid 2-(3-chloro-phenyl)-ethyl ester] | 1 µM | < 1 µM | –
13 | CC1=C(C(=O)OCCC2CC2)CNC(=S)N1 [2′, 6-methyl-2-thioxo-1,2,3,4-tetrahydro-pyrimidine-5-carboxylic acid 2-cyclopropyl-ethyl ester] | 2.4 µM | 1 to 10 µM | –
14 | CC1=C(C(=O)OCCc2cccc(OC(F)(F)F)c2)C(CO)NC(=S)N1 (stereo not shown) [75″, 4-hydroxymethyl-6-methyl-2-thioxo-1,2,3,4-tetrahydro-pyrimidine-5-carboxylic acid 2-(3-trifluoromethoxy-phenyl)-ethyl ester] | < 0.4 µM | < 1 µM | –
15 | CC1=C(C(=O)OCc2ccccc2)C(C(F)(F)F)NC(=S)N1 (stereo not shown) [Compound 234, 6-methyl-2-thioxo-4-trifluoromethyl-1,2,3,4-tetrahydro-pyrimidine-5-carboxylic acid benzyl ester] | 100 µM | > 20 µM | –
16 | CC1=C(C(=O)OCc2nc3ccccc3n2C)CNC(=S)N1 [Compound 241, 6-methyl-2-thioxo-1,2,3,4-tetrahydro-pyrimidine-5-carboxylic acid 1-methyl-1H-benzoimidazol-2-ylmethyl ester] | 97 µM | > 20 µM | –
17 | CC1=C(C(=O)OCCCc2ccc(C(F)(F)F)cc2)CNC(=S)N1 [Compound 107, 6-methyl-2-thioxo-1,2,3,4-tetrahydro-pyrimidine-5-carboxylic acid 3-(4-trifluoromethyl-phenyl)-propyl ester] | < 0.4 µM | < 1 µM | –

Row | Compound | IC50 [1] | IC50 [2] | IC50 (concentration at which 50% of HCV proteins was decreased, Table 2, read-out: IC50)
18 | CC1=C(C(=O)OCCC2CCc3ccccc32)CNC(=S)N1 (stereo not shown) [Compound 126, 6-methyl-2-thioxo-1,2,3,4-tetrahydro-pyrimidine-5-carboxylic acid 2-indan-1-yl-ethyl ester] | < 0.4 µM | < 1 µM | –
19 | CC1=C(C(=O)OCCc2ccccc2[N+](=O)[O-])C(CF)NC(=S)N1 (stereo not shown) [77′, 4-fluoromethyl-6-methyl-2-thioxo-1,2,3,4-tetrahydro-pyrimidine-5-carboxylic acid 2-(2-nitro-phenyl)-ethyl ester] | 39 µM | > 20 µM | –
20 | CC1=C(C(=O)OCC#Cc2ccccc2)C(CO)NC(=S)N1 (stereo not shown) [40″, 4-hydroxymethyl-6-methyl-2-thioxo-1,2,3,4-tetrahydro-pyrimidine-5-carboxylic acid 3-phenyl-prop-2-inyl ester] | – | – | > 100 µM
21 | CC1=C(C(=O)OCCc2cccc([N+](=O)[O-])c2)C(CO)NC(=S)N1 (stereo not shown) [32″, 4-hydroxymethyl-6-methyl-2-thioxo-1,2,3,4-tetrahydro-pyrimidine-5-carboxylic acid 2-(3-nitro-phenyl)-ethyl ester] | 6 µM | 1 to 10 µM | –
22 | CC1=C(C(=O)OCCc2ccsc2)C(CCl)NC(=S)N1 (stereo not shown) [76′, 4-chloromethyl-6-methyl-2-thioxo-1,2,3,4-tetrahydro-pyrimidine-5-carboxylic acid 2-thiophen-3-yl-ethyl ester] | 62 µM | > 20 µM | –
23 | CC1=C(C(=O)OCCc2cccc([N+](=O)[O-])c2)CNC(=S)N1 [14′, 6-methyl-2-thioxo-1,2,3,4-tetrahydro-pyrimidine-5-carboxylic acid 2-(3-nitro-phenyl)-ethyl ester] | 0.7 µM | < 1 µM | –
24 | CC1=C(C(=O)OCc2cc(F)cc(F)c2)CNC(=S)N1 [Compound 134, 6-methyl-2-thioxo-1,2,3,4-tetrahydro-pyrimidine-5-carboxylic acid 3,5-difluoro-benzyl ester] | 0.6 µM | < 1 µM | –
25 | CC1=C(C(=O)OCCCc2ccsc2)C(C(C)O)NC(=S)N1 (stereo not shown) [15″, 4-(1-hydroxy-ethyl)-6-methyl-2-thioxo-1,2,3,4-tetrahydro-pyrimidine-5-carboxylic acid 3-thiophen-3-yl-propyl ester] | 55 µM | > 20 µM | –
26 | CC1=C(C(=O)OCc2cc(Cl)ccc2[N+](=O)[O-])C(CO)NC(=S)N1 (stereo not shown) [47″, 4-hydroxymethyl-6-methyl-2-thioxo-1,2,3,4-tetrahydro-pyrimidine-5-carboxylic acid 5-chloro-2-nitro-benzyl ester] | > 100 µM | > 20 µM | –
27 | CC1=C(C(=O)OCc2ccc(Br)cc2)CNC(=S)N1 [Compound 60, 6-methyl-2-thioxo-1,2,3,4-tetrahydro-pyrimidine-5-carboxylic acid 4-bromo-benzyl ester] | < 0.5 µM | < 1 µM | –
28 | CC1=C(C(=O)OCCC[S+]([O-])c2nc3ccccc3o2)C(CF)NC(=S)N1 (stereo not shown) [49′, 4-fluoromethyl-6-methyl-2-thioxo-1,2,3,4-tetrahydro-pyrimidine-5-carboxylic acid 3-(benzoxazol-2-ylsulfinyl)-propyl ester] | 8 µM | 1 to 10 µM | –
29 | CC1=C(C(=O)OCCCc2ccc(F)cc2)C(CF)NC(=S)N1 (stereo not shown) [56′, 4-fluoromethyl-6-methyl-2-thioxo-1,2,3,4-tetrahydro-pyrimidine-5-carboxylic acid 3-(4-fluorophenyl)-propyl ester] | 2.4 µM | 1 to 10 µM | –
30 | CC1=C(C(=O)OCCCc2cccnc2)CNC(=S)N1 [Compound 158, 6-methyl-2-thioxo-1,2,3,4-tetrahydro-pyrimidine-5-carboxylic acid 3-pyridin-3-yl-propyl ester] | > 100 µM | > 20 µM | –
31 | CC1=C(C(=O)OCCc2ccsc2F)C(CF)NC(=S)N1 (stereo not shown) [1′, 4-fluoromethyl-6-methyl-2-thioxo-1,2,3,4-tetrahydro-pyrimidine-5-carboxylic acid 2-(2-fluoro-thiophen-3-yl)-ethyl ester] | 1.8 µM | 1 to 10 µM | –
32 | CC1=C(C(=O)OCCc2c(F)cccc2F)C(CO)NC(=S)N1 (stereo not shown) [39″, 4-hydroxymethyl-6-methyl-2-thioxo-1,2,3,4-tetrahydro-pyrimidine-5-carboxylic acid 2-(2,6-difluoro-phenyl)-ethyl ester] | 20 µM | 10 to 20 µM | –
33 | CC1=C(C(=O)OCC2CC=CCC2)CNC(=S)N1 (stereo not shown) [3′, 6-methyl-2-thioxo-1,2,3,4-tetrahydro-pyrimidine-5-carboxylic acid cyclohex-3-enylmethyl ester] | 0.7 µM | < 1 µM | –
34 | CSc1ccc(CCOC(=O)C2=C(C)NC(=S)NC2CO)cc1 (stereo not shown) [45″, 4-hydroxymethyl-6-methyl-2-thioxo-1,2,3,4-tetrahydro-pyrimidine-5-carboxylic acid 2-(4-methylsulfanyl-phenyl)-ethyl ester] | 2.7 µM | 1 to 10 µM | –

— patent US20060116390A1, “Hepatitis c virus inhibitors” (priority 2003, published 2006)
